Test results as given in the supplement of paper PMC11451515.

Test system: NOMO1
Test: cell viability relative to DMSO control; higher = less cytotoxic
Settings: 48 h
Procedure, shortened: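 Viability values are per-plate percentages of DMSO wells, with background from cell-free wells. Library compounds in DMSO were pin-dosed, in an 11-point threefold series from 47 μM to 0.79 nM, onto NOMO1 or SEM (500 cells/well) or P12-Ichikawa (1000 cells/well) leukemia cells in 1536-well plates (5 μl). Those cells had been adapted for at least four passages in each medium, and CellTiter-Glo One luminescence was read after 48 h at 37°C.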

[1] = HPLM + 10% dialyzed FBS, 0.000781 µM
[2] = HPLM + 10% dialyzed FBS, 0.00234 µM
[3] = HPLM + 10% dialyzed FBS, 0.00702 µM
[4] = HPLM + 10% dialyzed FBS, 0.0211 µM
[5] = HPLM + 10% dialyzed FBS, 0.0632 µM
[6] = HPLM + 10% dialyzed FBS, 0.19 µM
[7] = HPLM + 10% dialyzed FBS, 0.569 µM
[8] = HPLM + 10% dialyzed FBS, 1.71 µM
[9] = HPLM + 10% dialyzed FBS, 5.12 µM
[10] = HPLM + 10% dialyzed FBS, 15.4 µM
[11] = HPLM + 10% dialyzed FBS, 46.1 µM
[12] = RPMI 5 mM glucose + 10% FBS, 0.000781 µM
[13] = RPMI 5 mM glucose + 10% FBS, 0.00234 µM
[14] = RPMI 5 mM glucose + 10% FBS, 0.00702 µM
[15] = RPMI 5 mM glucose + 10% FBS, 0.0211 µM
[16] = RPMI 5 mM glucose + 10% FBS, 0.0632 µM
[17] = RPMI 5 mM glucose + 10% FBS, 0.19 µM
[18] = RPMI 5 mM glucose + 10% FBS, 0.569 µM
[19] = RPMI 5 mM glucose + 10% FBS, 1.71 µM
[20] = RPMI 5 mM glucose + 10% FBS, 5.12 µM
[21] = RPMI 5 mM glucose + 10% FBS, 15.4 µM
[22] = RPMI 5 mM glucose + 10% FBS, 46.1 µM
[23] = RPMI 5 mM glucose + 10% dialyzed FBS, 0.000781 µM
[24] = RPMI 5 mM glucose + 10% dialyzed FBS, 0.00234 µM
[25] = RPMI 5 mM glucose + 10% dialyzed FBS, 0.00702 µM
[26] = RPMI 5 mM glucose + 10% dialyzed FBS, 0.0211 µM
[27] = RPMI 5 mM glucose + 10% dialyzed FBS, 0.0632 µM
[28] = RPMI 5 mM glucose + 10% dialyzed FBS, 0.19 µM
[29] = RPMI 5 mM glucose + 10% dialyzed FBS, 0.569 µM
[30] = RPMI 5 mM glucose + 10% dialyzed FBS, 1.71 µM
[31] = RPMI 5 mM glucose + 10% dialyzed FBS, 5.12 µM
[32] = RPMI 5 mM glucose + 10% dialyzed FBS, 15.4 µM
[33] = RPMI 5 mM glucose + 10% dialyzed FBS, 46.1 µM

Row | SMILES | cell viability [1] [%] | cell viability [2] [%] | cell viability [3] [%] | cell viability [4] [%] | cell viability [5] [%] | cell viability [6] [%] | cell viability [7] [%] | cell viability [8] [%] | cell viability [9] [%] | cell viability [10] [%] | cell viability [11] [%] | cell viability [12] [%] | cell viability [13] [%] | cell viability [14] [%] | cell viability [15] [%] | cell viability [16] [%] | cell viability [17] [%] | cell viability [18] [%] | cell viability [19] [%] | cell viability [20] [%] | cell viability [21] [%] | cell viability [22] [%] | cell viability [23] [%] | cell viability [24] [%] | cell viability [25] [%] | cell viability [26] [%] | cell viability [27] [%] | cell viability [28] [%] | cell viability [29] [%] | cell viability [30] [%] | cell viability [31] [%] | cell viability [32] [%] | cell viability [33] [%]
1 | CC(C)Nc1cc(C(F)(F)F)cc2nc(NC(=O)c3cccnc3)nn12 | 120 | 116 | 118 | 126 | 123 | 101 | 119 | 85.2 | 80.8 | 71.6 | 54.2 | 106 | 107 | 115 | 106 | 98.1 | 118 | 116 | 52.6 | 45.9 | 56.5 | 64.8 | 108 | 109 | 115 | 119 | 125 | 103 | 98.2 | 55 | 50.4 | 56.9 | 62.9
2 | CCOc1cc(N)c(Cl)cc1C(=O)NCC1CN(Cc2ccc(F)cc2)CCO1 (stereo not drawn) | 85.2 | 120 | 125 | 118 | 119 | 120 | 102 | 120 | 128 | 111 | 107 | 102 | 115 | 106 | 108 | 114 | 108 | 106 | 113 | 122 | 109 | 104 | 113 | 115 | 122 | 118 | 116 | 111 | 125 | 112 | 111 | 107 | 107
3 | CC(=O)O[C@@]1(CC[C@H]2[C@@H]3\C=C(C)/C4=C/C(=O)CC[C@]4(C)[C@H]3CC[C@]12C)C(C)=O | 115 | 111 | 107 | 96.1 | 109 | 123 | 130 | 107 | 110 | 116 | 119 | 100 | 102 | 99.9 | 110 | 101 | 108 | 107 | 110 | 109 | 99 | 108 | 88.1 | 92.1 | 95.5 | 113 | 102 | 112 | 107 | 118 | 105 | 86.8 | 112
4 | NC(=O)c1ncn([C@@H]2O[C@H](CO)[C@@H](O)[C@H]2O)n1 | 116 | 134 | 110 | 117 | 112 | 103 | 88 | 69.2 | 55.4 | 56.8 | 29.6 | 104 | 129 | 115 | 108 | 113 | 110 | 102 | 85.4 | 76.7 | 74.5 | 36.7 | 124 | 110 | 116 | 115 | 114 | 104 | 89.4 | 69.3 | 58.2 | 68.2 | 48.9
5 | OC[C@H]1O[C@H]([C@@H](F)[C@@H]1O)N2\C=C/C(=O)NC2=O | 99.1 | 106 | 106 | 97.2 | 116 | 108 | 108 | 107 | 109 | 97.9 | 90.2 | 85.9 | 40.6 | 97 | 92.9 | 99.7 | 104 | 98.2 | 100 | 84.8 | 94.3 | 82.8 | 105 | 74.5 | 97 | 102 | 102 | 99.4 | 105 | 99.5 | 84 | 104 | 95.2
6 | CC1(C)CCC(=C(CN2CCN(CC2)C3=CC=C(C=C3)C(=O)N[S+]([O-])(=O)C4=CC(=C(N[C@H](CCN5CCOCC5)CSC6=CC=CC=C6)C=C4)[S+]([O-])(=O)C(F)(F)F)\C1)/C7=CC=C(Cl)C=C7 | 124 | 132 | 123 | 128 | 116 | 112 | 96.7 | 57.1 | 49.2 | 39.2 | 43.2 |  |  |  |  |  |  |  |  |  |  |  | 116 | 125 | 118 | 117 | 90.1 | 78.9 | 61.7 | 23.9 | 24.7 | 29.9 | 22.5
7 | O=C(/C=C/c1c(C(=O)[O-])[nH]c2cc(Cl)cc(Cl)c12)Nc1ccccc1 | 112 | 115 | 116 | 116 | 99.9 | 117 | 118 | 110 | 113 | 112 | 108 | 90.5 | 99 | 99.5 | 95.1 | 101 | 116 | 107 | 107 | 107 | 124 | 107 | 110 | 109 | 114 | 126 | 126 | 120 | 115 | 120 | 111 | 127 | 118
8 | C[C@H]1C[C@H]2[C@@H]3CCC4=CC(=O)C=C[C@]4(C)[C@@]3(F)[C@@H](O)C[C@]2(C)[C@@]1(O)C(=O)CO |  |  |  |  |  |  |  |  |  |  |  | 120 | 122 | 128 | 122 | 123 | 133 | 131 | 135 | 120 | 120 | 106 |  |  |  |  |  |  |  |  |  |  | 
9 | CC[C@H]1/C=C\C=C/C[C@@H](C)[C@H](O)[C@@](C)(O)C(=O)[C@@H](C)[C@H](O)[C@@H](C)C(=O)[C@@H](C)[C@H](O)[C@@H](C)/C=C/C(=O)O[C@@H]2[C@H](C)[C@H](CC1)O[C@]1(CC[C@H](C)[C@H](C[C@@H](C)O)O1)[C@H]2C | 74.4 | 89.4 | 105 | 117 | 103 | 106 | 108 | 55.4 | 40.7 | 31.6 | 5.57 | 83 | 86.4 | 87.1 | 88.9 | 82.7 | 104 | 92.7 | 44.7 | 39.1 | 37.6 | 4.56 | 81.4 | 89.2 | 92.9 | 83.9 | 75.1 | 94.4 | 79.7 | 54.2 | 39.9 | 31.6 | 4.92
10 | Clc1cc(Cl)cc(CNc2ncncc2-c2ccc3c(c2)OCO3)c1 | 81.1 | 85.8 | 97.1 | 94.1 | 101 | 92.4 | 94.6 | 90.8 | 85.7 | 82.7 | 16.1 | 77.6 | 85.5 | 87.6 | 80.7 | 101 | 96.6 | 87.3 | 97.9 | 85.4 | 87.7 | 40.3 | 91.5 | 92.1 | 81.4 | 93.7 | 82 | 93.5 | 84.2 | 87.3 | 88.8 | 101 | 52.9
11 | CC(=O)Nc1ccc([C@H](C)C(=O)Nc2ncc(C(C)C)s2)cc1 | 109 | 123 | 97.2 | 99 | 106 | 103 | 119 | 96.8 | 79.1 | 6.43 | 4.34 | 88.4 | 99.9 | 84.9 | 90.8 | 110 | 93.6 | 104 | 84.5 | 44.6 | 9.84 | 4.44 | 104 | 93.5 | 96.3 | 100 | 95.2 | 92 | 95.4 | 104 | 68.2 | 8.22 | 4.09
12 | O=C(CO)N1CCC(c2n[nH]c(-c3ccc(Cl)cc3)c2-c2ccncn2)CC1 | 117 | 121 | 134 | 129 | 117 | 129 | 120 | 117 | 123 | 34.6 | 78.2 | 111 | 115 | 118 | 113 | 121 | 111 | 113 | 115 | 119 | 57.3 | 96.3 | 113 | 123 | 116 | 105 | 123 | 111 | 109 | 119 | 113 | 41.6 | 92.8
13 | Cc1nccn1CC1CCc2c(c3ccccc3n2C)C1=O (stereo not drawn) |  |  |  |  |  |  |  |  |  |  |  | 115 | 108 | 114 | 122 | 105 | 105 | 111 | 111 | 108 | 112 | 105 | 113 | 116 | 115 | 121 | 118 | 112 | 113 | 111 | 109 | 106 | 104
14 | Cc1cccc(C)c1OCC(=O)N[C@@H](Cc1ccccc1)[C@@H](O)C[C@H](Cc1ccccc1)NC(=O)[C@H](C(C)C)N1CCCNC1=O | 95.1 | 106 | 102 | 109 | 104 | 111 | 89 | 91.5 | 91.4 | 81 | 43.9 | 85.8 | 94 | 97.7 | 85.8 | 95.9 | 97.3 | 84 | 78.4 | 83 | 86.4 | 74.4 | 96.9 | 92.9 | 92.9 | 107 | 91.1 | 89.2 | 81.1 | 82.4 | 89.4 | 76.5 | 71
15 | COc1cc(Nc2ncc(F)c(Nc3ccc4c(n3)NC(=O)C(C)(C)O4)n2)cc(OC)c1OC | 93.8 | 105 | 119 | 127 | 139 | 138 | 120 | 106 | 53.3 | 11.4 | 6.39 | 104 | 111 | 118 | 118 | 125 | 126 | 128 | 106 | 73.9 | 13.4 | 7.45 | 109 | 99.7 | 107 | 106 | 105 | 116 | 128 | 103 | 82.7 | 23.9 | 6.81
16 | CC1=CC=CC=C1CN2C(=O)C/3=C(/CCN(CC4=CC=CC=C4)C3)N\5CC\N=C25 |  |  |  |  |  |  |  |  |  |  |  | 109 | 118 | 121 | 124 | 134 | 113 | 116 | 119 | 59 | 20.1 | 21.4 | 132 | 118 | 122 | 126 | 120 | 122 | 133 | 86.6 | 69.9 | 25.9 | 23.6
